Test: logP
Format: physicochemical
Settings: intermediate amines of formula (II)

Row | logP | Structure (SMILES)
1 | 0.67 | c1ccc2c(c1)SCCC2NC1CC1 (racemic) [Example 177]
2 | 1.26 | CC1(C)CCC(NC2CC2)c2ccccc21 (racemic) [Example 178]
3 | 1.22 | COc1cc2c(cc1OC)C(NC1CC1)C(C)(C)CO2 (stereo not shown) [Example 167]
4 | 0.81 | CC1Cc2ccccc2C1NC1CC1 (stereo not shown) [Example 171]
5 | 1.15 | CC1(C)CC(NC2CC2)c2ccccc21 (stereo not shown) [Example 174]
6 | 0.32 | c1ccc2c(c1)OCCC2NC1CC1 (stereo not shown) [Example 175]
7 | 0.83 | Clc1ccc2c(c1)C(NC1CC1)CCO2 (stereo not shown) [Example 176]

From patent publication US9102588B2, “Fungicide N-cycloalkyl-N-bicyclic-carboxamide derivatives” (priority 2007, dated 2015)
